From ChEMBL document CHEMBL1144455, “A small molecule-kinase interaction map for clinical kinase inhibitors” (Nat Biotechnol, 2005)

Assays:
[1] = biological target: Ribosomal protein S6 kinase alpha-3 (Homo sapiens, UniProt P51812)
[2] = biological target: Tyrosine-protein kinase CSK (Homo sapiens, UniProt P41240)
[3] = biological target: Calcium/calmodulin-dependent protein kinase kinase 2 (Homo sapiens, UniProt Q96RR4)
[4] = biological target: T1, Ephrin type-B receptor 4 (Homo sapiens, UniProt P54760)
T1 sequence (P54760 whole entry): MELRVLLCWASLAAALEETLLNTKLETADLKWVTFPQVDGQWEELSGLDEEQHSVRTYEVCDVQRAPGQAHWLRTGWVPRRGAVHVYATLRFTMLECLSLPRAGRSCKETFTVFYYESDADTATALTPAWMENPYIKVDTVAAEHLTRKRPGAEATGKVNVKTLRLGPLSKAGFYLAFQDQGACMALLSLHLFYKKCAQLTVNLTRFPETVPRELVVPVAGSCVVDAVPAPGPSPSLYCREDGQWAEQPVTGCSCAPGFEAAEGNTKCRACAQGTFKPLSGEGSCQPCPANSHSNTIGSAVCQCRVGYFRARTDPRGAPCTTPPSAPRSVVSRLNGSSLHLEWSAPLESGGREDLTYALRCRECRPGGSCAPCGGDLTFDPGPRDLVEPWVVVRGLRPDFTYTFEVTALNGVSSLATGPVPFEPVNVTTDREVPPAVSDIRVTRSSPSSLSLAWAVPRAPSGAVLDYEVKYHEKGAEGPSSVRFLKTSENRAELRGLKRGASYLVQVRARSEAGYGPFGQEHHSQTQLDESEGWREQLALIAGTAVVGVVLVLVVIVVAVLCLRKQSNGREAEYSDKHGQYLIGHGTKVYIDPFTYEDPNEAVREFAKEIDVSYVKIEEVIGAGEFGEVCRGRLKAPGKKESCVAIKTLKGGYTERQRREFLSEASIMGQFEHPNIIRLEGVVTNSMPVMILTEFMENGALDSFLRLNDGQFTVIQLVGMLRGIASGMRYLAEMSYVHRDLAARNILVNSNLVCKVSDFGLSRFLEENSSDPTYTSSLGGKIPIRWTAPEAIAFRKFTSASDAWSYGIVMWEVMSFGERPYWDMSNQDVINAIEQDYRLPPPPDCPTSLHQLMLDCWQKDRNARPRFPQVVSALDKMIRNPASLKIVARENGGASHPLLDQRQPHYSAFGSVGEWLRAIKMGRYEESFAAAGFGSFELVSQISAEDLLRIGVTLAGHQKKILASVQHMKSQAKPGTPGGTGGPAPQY

[5] = biological target: Tyrosine-protein kinase JAK2 (Homo sapiens, UniProt O60674)
[6] = biological target: T2, Ephrin type-A receptor 3 (Homo sapiens, UniProt P29320)
T2 sequence (P29320 whole entry): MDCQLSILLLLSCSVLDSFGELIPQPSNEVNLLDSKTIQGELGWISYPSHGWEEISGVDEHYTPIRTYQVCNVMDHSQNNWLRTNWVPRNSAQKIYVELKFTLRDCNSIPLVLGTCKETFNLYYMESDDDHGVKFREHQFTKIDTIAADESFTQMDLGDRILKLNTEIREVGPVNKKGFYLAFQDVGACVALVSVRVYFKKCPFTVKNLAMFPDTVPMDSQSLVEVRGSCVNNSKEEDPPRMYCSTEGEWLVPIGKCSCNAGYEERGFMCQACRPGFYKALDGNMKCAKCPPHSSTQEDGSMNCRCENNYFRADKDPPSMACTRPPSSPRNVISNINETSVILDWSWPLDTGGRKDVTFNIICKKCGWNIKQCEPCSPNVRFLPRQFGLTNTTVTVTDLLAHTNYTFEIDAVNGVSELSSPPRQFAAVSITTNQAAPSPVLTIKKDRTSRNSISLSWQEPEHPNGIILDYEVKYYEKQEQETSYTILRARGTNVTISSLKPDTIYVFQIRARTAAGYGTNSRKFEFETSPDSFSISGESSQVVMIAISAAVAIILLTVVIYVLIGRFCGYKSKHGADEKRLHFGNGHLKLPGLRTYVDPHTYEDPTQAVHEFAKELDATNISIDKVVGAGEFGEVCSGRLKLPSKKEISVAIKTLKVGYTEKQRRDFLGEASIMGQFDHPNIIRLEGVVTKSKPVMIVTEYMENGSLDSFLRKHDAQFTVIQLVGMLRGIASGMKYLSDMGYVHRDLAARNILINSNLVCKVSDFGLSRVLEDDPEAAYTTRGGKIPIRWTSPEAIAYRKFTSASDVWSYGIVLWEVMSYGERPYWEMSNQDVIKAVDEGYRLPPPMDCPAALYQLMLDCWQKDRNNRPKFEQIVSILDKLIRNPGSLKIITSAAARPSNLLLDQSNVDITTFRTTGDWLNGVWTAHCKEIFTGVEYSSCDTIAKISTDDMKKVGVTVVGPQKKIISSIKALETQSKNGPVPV

[7] = biological target: T3, Serine/threonine-protein kinase 3 (Mus musculus, UniProt Q9JI10)
T3 sequence (Q9JI10 whole entry): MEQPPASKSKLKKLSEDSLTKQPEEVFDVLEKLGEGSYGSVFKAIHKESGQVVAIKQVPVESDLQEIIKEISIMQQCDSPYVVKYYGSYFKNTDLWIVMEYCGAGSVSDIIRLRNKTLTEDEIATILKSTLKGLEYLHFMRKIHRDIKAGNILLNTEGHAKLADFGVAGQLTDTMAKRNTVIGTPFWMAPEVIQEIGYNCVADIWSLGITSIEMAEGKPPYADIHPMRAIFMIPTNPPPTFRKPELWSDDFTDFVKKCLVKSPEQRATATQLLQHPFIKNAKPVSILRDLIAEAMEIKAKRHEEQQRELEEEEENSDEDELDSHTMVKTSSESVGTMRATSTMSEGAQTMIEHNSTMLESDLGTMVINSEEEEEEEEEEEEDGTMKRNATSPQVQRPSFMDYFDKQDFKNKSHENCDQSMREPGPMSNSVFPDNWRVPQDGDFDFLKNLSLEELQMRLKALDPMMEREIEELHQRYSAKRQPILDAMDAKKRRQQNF

Measured: Kd

Calcium/calmodulin-dependent protein kinase kinase 2, sequence (Q96RR4 whole entry): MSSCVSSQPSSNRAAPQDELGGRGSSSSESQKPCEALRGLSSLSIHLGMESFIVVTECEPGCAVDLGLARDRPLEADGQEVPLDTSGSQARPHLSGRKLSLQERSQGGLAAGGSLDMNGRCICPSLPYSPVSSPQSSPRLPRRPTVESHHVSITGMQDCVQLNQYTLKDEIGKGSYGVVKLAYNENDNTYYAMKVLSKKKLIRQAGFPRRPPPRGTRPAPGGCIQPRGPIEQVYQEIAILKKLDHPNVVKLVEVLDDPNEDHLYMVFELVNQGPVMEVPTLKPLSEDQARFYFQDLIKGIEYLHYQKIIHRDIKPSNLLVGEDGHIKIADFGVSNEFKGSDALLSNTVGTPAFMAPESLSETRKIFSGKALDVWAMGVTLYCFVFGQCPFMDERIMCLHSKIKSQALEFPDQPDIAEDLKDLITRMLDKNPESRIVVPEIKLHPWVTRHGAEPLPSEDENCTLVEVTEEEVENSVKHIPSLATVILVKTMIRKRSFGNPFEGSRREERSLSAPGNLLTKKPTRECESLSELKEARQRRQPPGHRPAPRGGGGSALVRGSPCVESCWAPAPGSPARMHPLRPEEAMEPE
Tyrosine-protein kinase JAK2, sequence (O60674 whole entry): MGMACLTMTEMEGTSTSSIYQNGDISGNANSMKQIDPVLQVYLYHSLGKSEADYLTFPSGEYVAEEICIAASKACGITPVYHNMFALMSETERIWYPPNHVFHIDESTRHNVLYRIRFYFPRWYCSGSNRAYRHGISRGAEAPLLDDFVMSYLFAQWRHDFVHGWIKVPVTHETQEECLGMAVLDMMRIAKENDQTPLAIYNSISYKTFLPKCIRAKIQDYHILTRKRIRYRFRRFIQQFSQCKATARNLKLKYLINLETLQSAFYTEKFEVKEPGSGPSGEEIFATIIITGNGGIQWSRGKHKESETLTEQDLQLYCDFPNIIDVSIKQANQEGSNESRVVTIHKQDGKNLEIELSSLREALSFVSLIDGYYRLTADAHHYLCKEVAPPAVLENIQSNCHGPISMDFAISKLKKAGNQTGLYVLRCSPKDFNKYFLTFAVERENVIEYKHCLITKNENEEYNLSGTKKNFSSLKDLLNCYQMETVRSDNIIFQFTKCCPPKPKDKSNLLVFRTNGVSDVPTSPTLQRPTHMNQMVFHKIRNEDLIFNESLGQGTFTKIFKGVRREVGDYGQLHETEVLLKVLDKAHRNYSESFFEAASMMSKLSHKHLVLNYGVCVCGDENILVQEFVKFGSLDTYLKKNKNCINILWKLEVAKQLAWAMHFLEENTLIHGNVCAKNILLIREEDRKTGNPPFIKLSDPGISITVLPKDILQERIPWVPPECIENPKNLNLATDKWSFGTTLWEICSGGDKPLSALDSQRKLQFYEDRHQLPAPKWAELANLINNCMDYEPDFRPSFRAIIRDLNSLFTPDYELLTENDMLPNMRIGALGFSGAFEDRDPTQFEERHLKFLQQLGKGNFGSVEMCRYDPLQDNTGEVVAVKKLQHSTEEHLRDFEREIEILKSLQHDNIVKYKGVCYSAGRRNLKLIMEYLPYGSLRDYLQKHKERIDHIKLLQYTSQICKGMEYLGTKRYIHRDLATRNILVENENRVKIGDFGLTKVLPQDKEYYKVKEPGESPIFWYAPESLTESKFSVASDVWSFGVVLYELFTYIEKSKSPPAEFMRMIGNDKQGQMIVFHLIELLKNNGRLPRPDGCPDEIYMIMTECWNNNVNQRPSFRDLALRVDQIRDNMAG
Ribosomal protein S6 kinase alpha-3, sequence (P51812 whole entry): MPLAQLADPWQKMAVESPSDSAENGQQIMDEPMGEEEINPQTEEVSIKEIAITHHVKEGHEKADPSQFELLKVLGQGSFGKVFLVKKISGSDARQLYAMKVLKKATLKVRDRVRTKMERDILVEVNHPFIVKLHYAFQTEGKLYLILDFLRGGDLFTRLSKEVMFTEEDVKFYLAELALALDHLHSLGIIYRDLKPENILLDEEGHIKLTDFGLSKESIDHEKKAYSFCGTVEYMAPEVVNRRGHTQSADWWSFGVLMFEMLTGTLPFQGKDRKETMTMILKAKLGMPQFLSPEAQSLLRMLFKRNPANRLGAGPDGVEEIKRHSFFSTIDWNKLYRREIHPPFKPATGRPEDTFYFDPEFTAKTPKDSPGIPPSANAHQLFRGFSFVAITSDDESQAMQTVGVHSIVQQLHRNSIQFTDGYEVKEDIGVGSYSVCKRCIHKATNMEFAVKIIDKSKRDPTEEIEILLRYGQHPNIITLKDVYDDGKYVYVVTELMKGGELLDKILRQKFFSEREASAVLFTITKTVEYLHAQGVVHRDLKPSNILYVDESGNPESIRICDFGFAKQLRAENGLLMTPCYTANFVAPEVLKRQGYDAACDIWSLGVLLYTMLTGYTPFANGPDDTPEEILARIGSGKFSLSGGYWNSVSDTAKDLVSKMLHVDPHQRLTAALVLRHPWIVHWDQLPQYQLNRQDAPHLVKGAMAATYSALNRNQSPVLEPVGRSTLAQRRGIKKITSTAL
Tyrosine-protein kinase CSK, sequence (P41240 whole entry): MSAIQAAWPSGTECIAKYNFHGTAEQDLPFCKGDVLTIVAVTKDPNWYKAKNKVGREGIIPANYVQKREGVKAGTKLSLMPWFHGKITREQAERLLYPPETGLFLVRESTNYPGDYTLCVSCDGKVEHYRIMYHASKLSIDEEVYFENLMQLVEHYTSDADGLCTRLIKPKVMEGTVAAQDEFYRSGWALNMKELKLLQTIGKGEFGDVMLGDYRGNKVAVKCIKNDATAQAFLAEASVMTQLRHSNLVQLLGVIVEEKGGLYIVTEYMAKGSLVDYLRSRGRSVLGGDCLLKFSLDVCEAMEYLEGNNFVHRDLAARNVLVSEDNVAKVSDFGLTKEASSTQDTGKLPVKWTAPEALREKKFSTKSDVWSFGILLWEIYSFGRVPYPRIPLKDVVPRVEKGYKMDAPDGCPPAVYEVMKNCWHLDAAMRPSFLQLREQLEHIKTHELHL

C#Cc1cccc(Nc2ncnc3cc(OCCOC)c(OCCOC)cc23)c1 [ERLOTINIB]
Not Active: all assays above

Cc1ccc(NC(=O)c2ccc(CN3CCN(C)CC3)cc2)cc1Nc1nccc(-c2cccnc2)n1 [IMATINIB]
Not Active: all assays above

O=c1ncn2nc(Sc3ccc(F)cc3F)ccc2c1-c1c(Cl)cccc1Cl [NEFLAMAPIMOD]
not listed: [4]
Not Active: all other assays above

CCOc1cc2ncc(C#N)c(Nc3ccc(F)c(Cl)c3)c2cc1NC(=O)/C=C/CN(C)C [PELITINIB]
Not Active: [1]

Oc1ccc(-c2nc(-c3ccc(F)cc3)c(-c3ccncc3)[nH]2)cc1 [SB-202190]
Not Active: all assays above

C[S+]([O-])c1ccc(-c2nc(-c3ccc(F)cc3)c(-c3ccncc3)[nH]2)cc1 (stereo not drawn) [SB-203580]
Not Active: all assays above

CC[C@H](CO)Nc1nc(NCc2ccccc2)c2ncn(C(C)C)c2n1 [SELICICLIB]
Not Active: all assays above

Oc1c2ccccc2c2c3c(cccc13)N=N2 [SP-600125]
Not Active: [1] | [2] | [4] | [5]

COc1cc2c(N3CCN(C(=O)Nc4ccc(OC(C)C)cc4)CC3)ncnc2cc1OCCCN1CCCCC1 [TANDUTINIB]
Not Active: all assays above
